Biological target: T1, BRD4 (first bromodomain, BRD4-BD1) (Homo sapiens, UniProt O60885)
T1 construct: BRD4-BD1 (first bromodomain)
Assay: fluorescence polarization competitive inhibition assay
Format: binding

Ki: 14.9 ± 0.97 nM
SMILES: Cc1sc2c(c1C)C(c1ccc(Cl)cc1)=N[C@@H](CC(=O)NCCOCCOCCOCCOCCOCCOCCOCCOCc1cn(-c3ccc4c(NCCCNCc5ccc6[nH]ccc6c5)ccnc4c3)nn1)c1nnc(C)n1-2 [105B]

Source: doi:10.1101/2025.11.03.686228, “Design of Tissue-Selective PROTACs Through Recruiting E3 Ligase Scaffolding Protein MAGEA11” (bioRxiv, 2025)
